We go through four molecules from patent US5445942A, “Amplification assay for hydrolase enzymes” (London Biotechnology Limited, priority 1988, dated 1995).

For test [1], the target named is D-amino acid oxidase (Sus scrofa, UniProt P00371). The settings on record: same concentration as D-alanine (35 mM), pH 8.0. The text has this: Use of apo-D-amino acid oxidase, whose holoenzyme has a pH optimum of 8.0-9.0, allows the above assay to be conducted in a single pot:
The above ingredients may be mixed beforehand and added directly too the alkaline phosphatase.

Test [2] concerns the target T1, apoglucose oxidase (Aspergillus niger, UniProt P13006).
T1 construct: made in house
The test is described as follows: Binding of FAD / FADP by apoglucose oxidase (removal of FAD traces from FADP). The method, then:
Apoglucose oxidase (2.5 μM) was mixed with FADP (200 μM) at room temperature. After 30 min the mixture was ultrafiltered to yield a sample of FADP containing less than 0.002% FAD.

Test [3] has as its system apoenzyme. The experiment in a line: Prosthetic-group activity of FADP and its interference with holoenzyme formation from apoenzyme and FAD. The test is classed as biochemical. To be noted: shelf-stable apoenzymes. The text has this:
In a preferred embodiment, the prosthetogen is an FAD-phosphate (FADP) and the hydrolase is a phosphatase. This procedure has the great advantage that the prosthetic group, FAD, is formed directly by action of a phosphatase enzyme on the prosthetogen, FADP, without the necessity to add any ancillary converting enzymes.
Suitable apoenzymes include apo-D-aminoacid oxidase and apoglucose oxidase as mentioned above, as well as apo-L-aminoacid oxidase, apoxanthine oxidase and other apoenzymes which will be apparent to those skilled in the art. Apo-D-aminoacid oxidase is a preferred apoenzyme for many applications since it is very shelf-stable, and has kinetic characteristics that permits the technology to be used in a `single pot` format, with all components added as a single promix to analyte-linked alkaline phosphatase. Suitable substrates for it are D-alanine, D-methionine and D-proline. For maximising the sensitivity of the invention without incorporating tail-end cycling components (see below), the use of apoglucose oxidase is advantageous, although its use requires a two stage format in which the first stage, involving hydrolysis of FADP, is operated at pH 8.0 and the second detection stage at a lower pH.

Test [4] relates to alkaline phosphatase. The test is described as follows: Hydrolysis of FADP by alkaline phosphatase, product checked by anion exchange elution and apoglucose oxidase reconstitution. To be noted: 10 mM Tris buffer pH 8.0, 1 mM MgCl2, 0.1 mM ZnCl2. It is filed as biochemical. The text has this:
Crude 2'(3')-FADP was isolated by FPLC on a Mono Q HR 10/10 anion exchange column (Pharmacia) with a H2 O/1M ammonium formate (pH 6.5) gradient. The fractions eluting with 0.65-0.8M ammonium formate were pooled and freeze-dried. […] Traces of FAD could be removed by treatment with a suitable apoenzyme followed by ultrafiltration to remove the macromolecules.

Chain of D-amino acid oxidase (P00371 whole entry): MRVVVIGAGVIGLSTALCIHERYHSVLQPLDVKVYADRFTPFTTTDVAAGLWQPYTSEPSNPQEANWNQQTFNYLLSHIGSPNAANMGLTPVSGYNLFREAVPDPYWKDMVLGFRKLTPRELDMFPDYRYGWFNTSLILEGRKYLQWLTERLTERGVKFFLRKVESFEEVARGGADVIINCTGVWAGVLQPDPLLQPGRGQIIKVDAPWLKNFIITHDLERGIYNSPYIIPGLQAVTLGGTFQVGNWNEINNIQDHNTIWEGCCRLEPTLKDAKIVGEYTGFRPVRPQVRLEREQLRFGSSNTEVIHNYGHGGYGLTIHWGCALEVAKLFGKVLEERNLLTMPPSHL
T1 sequence (P13006 17-605): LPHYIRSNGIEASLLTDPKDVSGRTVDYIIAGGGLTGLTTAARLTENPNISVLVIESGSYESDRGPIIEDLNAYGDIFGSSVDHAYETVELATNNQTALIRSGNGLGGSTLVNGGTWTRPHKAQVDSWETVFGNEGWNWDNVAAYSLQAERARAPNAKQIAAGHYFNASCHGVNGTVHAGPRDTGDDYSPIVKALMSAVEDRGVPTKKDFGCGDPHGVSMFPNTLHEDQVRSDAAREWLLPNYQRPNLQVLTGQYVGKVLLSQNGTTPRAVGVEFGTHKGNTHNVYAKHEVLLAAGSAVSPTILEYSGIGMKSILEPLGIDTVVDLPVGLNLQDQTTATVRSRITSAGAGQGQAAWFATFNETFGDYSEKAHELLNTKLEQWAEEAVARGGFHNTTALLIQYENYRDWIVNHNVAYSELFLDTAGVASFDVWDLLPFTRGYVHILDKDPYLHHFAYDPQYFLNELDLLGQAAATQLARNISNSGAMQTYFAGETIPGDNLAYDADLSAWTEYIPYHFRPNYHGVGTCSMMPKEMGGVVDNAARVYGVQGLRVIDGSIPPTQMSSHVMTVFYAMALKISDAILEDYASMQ

For `CSCC[C@@H](N)C(=O)O` [D-methionine], the “rate of oxidation relative to D-alanine” value in test [1] is reported as 2.5.

Turning to `O=C(O)[C@H]1CCCN1` [D-proline], in test [1], the “rate of oxidation relative to D-alanine” value was 3.0.

On to `Cc1cc2nc3c(=O)[nH]c(=O)nc-3n(C[C@H](O)[C@H](O)[C@H](O)COP(=O)(O)OP(=O)(O)OC[C@H]3O[C@@H](n4cnc5c(N)ncnc54)[C@H](O)[C@@H]3O)c2cc1C` [FAD, flavin adenine dinucleotide, reference compound], for which, in test [2], the “binding by apoglucose oxidase” value is reported as “binds FAD tightly”.

For FAD-2' (3')-Phosphate [FADP], in test [3], the “activity per se as a prosthetic group” value is recorded as “no significant activity per se as a prosthetic group”; the “interference with formation of the holoenzyme from apoenzyme and FAD” value is on record as “does not significantly interfere with the formation of the holoenzyme”. Moreover, the “binding by apoglucose oxidase” value in test [2] was “does not bind FADP”. For the same molecule, the “hydrolysis by alkaline phosphatase” value in test [4] was “acted upon by alkaline phosphatase to give a product that eluted in the same place as FAD and was able to reconstitute apoglucose oxidase”.
